Source: patent US4921866A, “1,3-dioxanes” (Imperial Chemical Industries plc, priority 1987, dated 1990)
Entries after “also recorded” stand apart in the source; their conditions may differ.

How the values were obtained:
[1] = observation of signs of toxicity in rats in test (f); format: in vivo, rat; details: oral dose of 100 mg/kg to rats
TXA2 receptor [2] = target: T1, TXA2 receptor (Rattus norvegicus, UniProt P34978); test: test (a): rat aortic strip model, U46619 as agonist; format: cell-based; details: read-out: pA2 (converted)
T1 construct: The rat aortic strip model; from tissue; host or cells: rat aortic strip
T1 sequence (P34978 1-341): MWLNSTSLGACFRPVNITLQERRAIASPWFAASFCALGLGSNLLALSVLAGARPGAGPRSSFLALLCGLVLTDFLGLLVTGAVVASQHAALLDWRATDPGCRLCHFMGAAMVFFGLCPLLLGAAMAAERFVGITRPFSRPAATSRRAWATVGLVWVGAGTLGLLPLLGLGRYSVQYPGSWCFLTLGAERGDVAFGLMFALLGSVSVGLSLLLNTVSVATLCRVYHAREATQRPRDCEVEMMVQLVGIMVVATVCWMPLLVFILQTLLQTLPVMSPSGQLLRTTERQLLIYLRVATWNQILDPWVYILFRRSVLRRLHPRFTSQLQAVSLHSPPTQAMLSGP
Excerpt: (a) The rat aortic strip model (based on that devised by Piper and Vane (Nature, 1969, 223, 29-35) in the rabbit) using as agonist the TXA2 mimetic agent known as U46619 (described by R. L. Jones et alia in "Chemistry, Biochemistry and Pharmacological Activity of Prostanoids" edited by S. M. Roberts and F. Scheinmann, at page 211; Pergamon Press, 1979);

TXA2 synthase [3] = test: test (f): TXB2 production in blood samples from dosed laboratory animals; format: in vivo, rat; details: 3 hours following an oral dose of 100 mg/kg to rats
Experimental: (§1) The samples treated with anti-coagulant are first incubated at 37° C. with collegen (at about 100 micro M), then mixed with the cyclooxygenase inhibitor indomethancin (at about […]), centrifuged and the level of the TXA2 metabolite TXB2 determined by a standard radioimmunoassay technique. By comparison of the amount of TXB2 present in the plasma from animals dosed with test compound with that in the plasma of a control group dosed with placebo, the TXA2 synthase inhibitory properties may be assessed.

TXA2 receptor [4] = target: T2, TXA2 receptor (Homo sapiens, UniProt P21731); test: test (b): blood platelet aggregation test, U46619 stimulated, human platelet-rich plasma; format: cell-based
T2 construct: aggregating human, citrated, platelet-rich plasma; endogenous in cells; host or cells: human platelets in citrated platelet-rich plasma
T2 sequence (P21731 1-343): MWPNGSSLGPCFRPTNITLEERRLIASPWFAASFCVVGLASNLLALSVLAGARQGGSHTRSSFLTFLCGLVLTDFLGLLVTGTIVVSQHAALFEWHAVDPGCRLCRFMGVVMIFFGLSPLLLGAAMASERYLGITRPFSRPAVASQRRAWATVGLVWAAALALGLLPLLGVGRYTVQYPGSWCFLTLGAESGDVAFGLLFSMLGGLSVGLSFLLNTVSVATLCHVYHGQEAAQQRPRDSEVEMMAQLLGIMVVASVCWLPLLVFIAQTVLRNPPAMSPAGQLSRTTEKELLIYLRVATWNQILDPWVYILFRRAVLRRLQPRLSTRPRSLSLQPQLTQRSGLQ
Excerpt: (b) a blood platelet aggregation test based on that described by Born (Nature, 1962, 194, 927-929) and involving:
(i) aggregating human, citrated, platelet-rich plasma by addition of the TXA2 mimetic agent U46619 so that a dose-response curve is generated;
(ii) generating a dose-response curve for U46619 stimulated platelet aggregation in the presence of increasing amounts of test compound (generally in the range 10^-5 M to 10^-10 M); and
(iii) calculating a KB value indicating potency of TXA2 antagonism for the test compound, average over several concentrations, from the calculated 50% response value for U46619 aggregation in the presence and absence of test compound; or […]

TXA2 synthase [5] = target: T3, TXA2 synthase (Homo sapiens, UniProt P24557); test: test (e): in vitro TXA2 synthase inhibition, human platelet microsomal TXA2 synthase preparation; format: biochemical
T3 construct: using a human platelet microsomal TXA2 synthase preparation; from tissue; host or cells: human platelet microsomes
T3 sequence (P24557 1-533): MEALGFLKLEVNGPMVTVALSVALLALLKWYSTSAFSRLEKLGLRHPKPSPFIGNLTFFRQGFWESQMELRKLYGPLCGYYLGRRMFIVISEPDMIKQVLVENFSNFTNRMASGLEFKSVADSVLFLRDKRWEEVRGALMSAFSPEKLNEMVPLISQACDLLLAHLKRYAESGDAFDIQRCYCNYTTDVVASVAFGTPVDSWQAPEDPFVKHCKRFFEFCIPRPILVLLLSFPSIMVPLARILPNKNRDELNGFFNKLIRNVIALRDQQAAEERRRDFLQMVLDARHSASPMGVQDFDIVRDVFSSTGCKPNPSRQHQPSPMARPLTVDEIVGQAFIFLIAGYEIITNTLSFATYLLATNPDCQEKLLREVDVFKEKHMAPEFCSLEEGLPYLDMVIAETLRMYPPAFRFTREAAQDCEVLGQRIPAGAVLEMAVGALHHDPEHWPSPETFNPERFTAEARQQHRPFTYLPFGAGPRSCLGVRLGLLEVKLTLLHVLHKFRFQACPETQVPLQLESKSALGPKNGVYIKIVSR

[6] = TXA2 antagonist and/or TXA2 synthase inhibitory properties (general statement, standard tests); details: qualitative statement
Experimental: as §1

Row | Compound | TXA2 antagonist and/or TXA2 synthase inhibitory properties [6] | further results
1 | O=C(O)CC/C=C\C[C@@H]1CO[C@H](c2cccnc2)O[C@@H]1c1ccccc1O (relative stereo) [Example 1, 4(Z)-6-([2,4,5-cis]-4-o-hydroxyphenyl-2-[3-pyridyl]-1,3-dioxan-5-yl)hexenoic acid] | combined antagonist and TXA2 synthase inhibitory properties; also recorded: both TXA2 antagonist and TXA2 synthase inhibitory properties | observable signs of toxicity to the test animals [1]: without any observable signs of toxicity; Kb (TXA2 receptor [2]): 79.4 nM; inhibition of TXB2 production (TXA2 synthase [3]): essentially complete inhibition of TXB2 production; Kb (TXA2 receptor [4]): 17 nM; IC50 (TXA2 synthase [5]): 3140 nM
2 | O=C(O)CCC/C=C\C[C@@H]1CO[C@H](Cc2cccnc2)O[C@@H]1c1ccccc1O (relative stereo) [Example 2, 5(Z)-7-([2,4,5-cis]-4-o-hydroxyphenyl-2-[3-pyridylmethyl]-1,3-dioxan-5-yl)heptenoic acid] | combined antagonist and TXA2 synthase inhibitory properties | –
3 | O=C(O)CC/C=C\C[C@@H]1CO[C@H](c2ccccn2)O[C@@H]1c1ccccc1O (relative stereo) [Example 4, 4(Z)-6-([2,4,5-cis]-4-o-hydroxyphenyl-2-[2-pyridyl]-1,3-dioxan-5-yl)hexenoic acid] | TXA2 antagonist properties | –
4 | O=C(O)CCCC/C=C\C[C@@H]1CO[C@H](c2ccncc2)O[C@@H]1c1ccccc1O (relative stereo) [Example 9, 6(Z)-8-([2,4,5-cis]-4-o-hydroxyphenyl-2-[4-pyridyl]-1,3-dioxan-5-yl)octenoic acid] | predominantly TXA2 synthase inhibitory properties | –
5 | O=C(O)CC/C=C\C[C@@H]1CO[C@H](Cc2ccccn2)O[C@@H]1c1ccccc1O (relative stereo) [Example 11, 4(Z)-6-([2,4,5-cis]-4-o-hydroxyphenyl-2-[2-pyridylmethyl]-1,3-dioxan-5-yl)hexenoic acid] | TXA2 antagonist properties | –
6 | O=C(O)CC/C=C\C[C@@H]1CO[C@H](Cc2cccnc2)O[C@@H]1c1ccccc1O (relative stereo) [Example 12, 4(Z)-6-([2,4,5-cis]-4-o-hydroxyphenyl-2-[3-pyridylmethyl]-1,3-dioxan-5-yl)hexenoic acid] | combined antagonist and TXA2 synthase inhibitory properties | –
7 | O=C(O)CCC/C=C\C[C@@H]1CO[C@H](Cc2cccnc2)O[C@@H]1c1ccccc1 (relative stereo) [Example 16, 5(Z)-7-(4-phenyl-2-[3-pyridylmethyl]-1,3-dioxan-5-yl)heptenoic acid] | predominantly TXA2 synthase inhibitory properties | –
8 | CC(C)(c1cccnc1)[C@H]1OC[C@@H](C/C=C\CCC(=O)O)[C@@H](c2ccccc2O)O1 (relative stereo) [Example 17, 4(Z)-6-([2,4,5-cis]-4-o-hydroxyphenyl-2-[1-(3-pyridyl)-1-methylethyl]-1,3-dioxan-5-yl)hexenoic acid] | combined antagonist and TXA2 synthase inhibitory properties | –
9 | CC(C)(Cc1cccnc1)[C@H]1OC[C@@H](C/C=C\CCC(=O)O)[C@@H](c2ccccc2O)O1 (relative stereo) [Example 18, 4(Z)-6-([2,4,5-cis]-4-o-hydroxyphenyl-2-[2-(3-pyridyl)-1,1-dimethylethyl]-1,3-dioxan-5-yl)hexenoic acid] | combined antagonist and TXA2 synthase inhibitory properties | –
10 | CC(C)(c1cccnc1)[C@H]1OC[C@@H](C/C=C\CCCC(=O)O)[C@@H](c2ccccc2O)O1 (relative stereo) [Example 19, 5(Z)-7-([2,4,5-cis]-4-o-hydroxyphenyl-2[1-(3-pyridyl)-1-methylethyl]-1,3-dioxan-5-yl)heptenoic acid] | combined antagonist and TXA2 synthase inhibitory properties | –
11 | CC(C)(Oc1cccnc1)[C@H]1OC[C@@H](C/C=C\CCC(=O)O)[C@@H](c2ccccc2O)O1 (relative stereo) [Example 23, 4(Z)-6-([2,4,5-cis]-4-o-hydroxyphenyl-2-[1-(3-pyridyloxy)-1-methylethyl]-1,3-dioxan-5-yl)hexenoic acid] | combined antagonist and TXA2 synthase inhibitory properties | –
